Test results from patent US8765972B2 (priority 2009, dated 2014).
Where two headings read alike, the source gives them in different places.

Assays:
[1] = molecular target: T1, PARP-1 (Homo sapiens (Human), UniProt P09874); assay: biochemical; conditions: PARP-1 (Kd)
Experimental: (§1) Affinity evaluation of the tested compounds and their selectivity with respect to the different PARP isoforms of interest was assessed in a displacement assay.
(§2) The polarization signal can be measured, e.g., by a plate reader such as the Saphire2 (Tecan). The displacement ability of the test compound is in correlation with the compound affinity for the NAD pocket of the enzyme.
(§3) In all of the experiments, the polarization signal was measured using a Saphire2 plate reader (Tecan). Data analysis was performed using Dynafit software. In particular, titration data were fitted to the following equilibria: Enzyme+probe<==>Complex Enzyme-probe, while displacement data were fitted to the following equilibria: Enzyme+probe<==>Complex Enzyme-probe, Enzyme+Compound<==>Complex Enzyme-Compound, whereby binding of probe and compound on the enzyme are mutually exclusive (pure competitive mechanism). Displacement data were also fitted using Excell spreadsheet (Microsoft Inc. Seattle, USA) to a four parameter logistic model (4PL), or Hill-Slope model to calculate DC50s where the DC50 value represents the compound concentration at which the polarization signal is diminished by 50% compared to untreated controls.
(§4) In agreement, affinity binding constants (KD) were determined by fitting with a pure competitive mechanism. KD values, are the average of three independent experiments.

[2] = molecular target: T1, PARP-1; conditions: for DC50: read-out: PARP-1 (DC50); for Kd: read-out: PARP-1 (Kd)
Experimental: as §1, §2, §3, §4

[3] = molecular target: PARP-3 (Homo sapiens (Human), UniProt Q9Y6F1); conditions: read-out: PARP-3 (DC50); probe compound P1
Sequence of PARP-3 (Q9Y6F1 whole entry): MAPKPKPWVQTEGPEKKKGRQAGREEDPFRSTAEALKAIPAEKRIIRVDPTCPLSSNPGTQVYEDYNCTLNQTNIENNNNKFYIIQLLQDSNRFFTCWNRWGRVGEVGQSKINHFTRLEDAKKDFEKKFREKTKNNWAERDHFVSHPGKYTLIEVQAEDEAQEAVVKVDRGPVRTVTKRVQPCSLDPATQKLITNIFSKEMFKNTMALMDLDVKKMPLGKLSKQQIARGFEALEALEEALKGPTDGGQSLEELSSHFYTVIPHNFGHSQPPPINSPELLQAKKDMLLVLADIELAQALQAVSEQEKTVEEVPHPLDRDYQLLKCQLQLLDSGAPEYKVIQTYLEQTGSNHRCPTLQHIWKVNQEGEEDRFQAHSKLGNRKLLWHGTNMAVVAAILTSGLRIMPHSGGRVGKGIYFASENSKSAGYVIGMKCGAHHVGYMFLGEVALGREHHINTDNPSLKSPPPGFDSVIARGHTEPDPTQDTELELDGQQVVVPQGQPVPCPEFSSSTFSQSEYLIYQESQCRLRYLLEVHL
Experimental: as §1, §2, §3, §4

[4] = molecular target: PARP-2 (Homo sapiens (Human), UniProt Q9UGN5); conditions: read-out: PARP-2 (DC50); probe compound P1
Sequence of PARP-2 (Q9UGN5 whole entry): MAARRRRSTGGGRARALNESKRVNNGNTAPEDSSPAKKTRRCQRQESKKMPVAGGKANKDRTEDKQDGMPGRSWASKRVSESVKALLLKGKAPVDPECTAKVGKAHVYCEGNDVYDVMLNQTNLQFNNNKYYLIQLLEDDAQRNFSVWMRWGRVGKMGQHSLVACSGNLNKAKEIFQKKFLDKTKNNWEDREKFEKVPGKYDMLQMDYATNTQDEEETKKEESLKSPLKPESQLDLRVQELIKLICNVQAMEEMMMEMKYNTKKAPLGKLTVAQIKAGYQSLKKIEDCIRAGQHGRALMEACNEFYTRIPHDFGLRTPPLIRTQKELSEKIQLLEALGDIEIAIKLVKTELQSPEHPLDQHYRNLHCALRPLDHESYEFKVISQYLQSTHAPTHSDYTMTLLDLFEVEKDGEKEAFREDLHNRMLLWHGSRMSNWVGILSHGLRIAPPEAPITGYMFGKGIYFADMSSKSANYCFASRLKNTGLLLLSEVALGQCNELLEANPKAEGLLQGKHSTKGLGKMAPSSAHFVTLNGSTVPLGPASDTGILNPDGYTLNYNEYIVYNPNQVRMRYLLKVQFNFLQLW
Experimental: as §1, §2, §3, §4

[5] = test system: PAR formation in HeLa cells; assay: cells; conditions: Homo sapiens, read-out: PAR assay (IC50)
Experimental: Cellular PAR levels were measured by immunocytochemistry, and quantified using an ArrayScan vTi instrument (Cellomics Thermo Scientific). […] Test compounds were then added at the required concentration for 30'. […] After 3 washes in PBS, wells incubated in PBS (w/v) 5% FBS 0.05% Tween20 containing 2 μg/mL Cy2-conjugated Goat anti mouse secondary antibody (Amersham Pharmacia Biotech cat. […] At least 10 fields, corresponding to at least 900 cells, were read for each well. […] X is the logarithm of concentration. IC50 is the response; IC50 starts at Bottom and goes to Top with a sigmoid shape.

[6] = test system: Capan-1 human pancreatic cancer tumors; assay: In vivo efficacy, Capan-1 BRCA-2 mutated mouse model, single agent; parameters: species or system Balb, athymic Nu/Nu male mice; conditions: oral
Text: (§5) Balb, athymic Nu/Nu male mice, from Harlan (Italy), were maintained in agreement with the European Communities Council Directive no. 86/609/EEC concerning the protection of animals used for experimental or other scientific purposes, in cages with paper filter cover, food and bedding sterilized and acidified water. Fragments of Capan-1 human pancreatic cancer tumors were implanted subcutaneously. […] Each group included seven animals. The treatment started one day after randomization. Compound of formula (I) was administered by oral route as a methocel suspension at the indicated doses and times. Tumor dimension was measured regularly by calipers during the experiments and tumor mass was calculated as described in Simeoni M. et al., Cancer Res 64, 1094-1101 (2004).

[7] = male, Balb, Nu/Nu, mouse, in vivo, 10 mg/kg
Experimental: (§6) The compounds were formulated in 10% tween 80/dextrose for intravenous bolus administration while oral administrations were performed using the compounds formulated in 0.5% methylcellulose. […] Plasma samples were prepared by plasma proteins precipitation adding 200 μL of methanol to 10 μL of plasma in a 96 well plate. […] The supernatant was considered as final extract and injected onto the LC-MS-MS system (HPLC system: Hewlett Packard 1100 series using Atlantis HILIC Silica 50*2.1 mm 5.0 μm analytical column; MS instrument: Perkin Elmer SCIEX API 2000 and ionization performed with Turbo Ion Spray in positive ion mode). Lower limit of quantification is 5.0 ng/mL, upper limit of quantification is 10000 ng/mL. Analysis was performed using the Watson package (version 6.4.0.04) and Excel spreadsheet (Microsoft Inc. Seattle, USA). Non-compartmental method (linear trapezoidal rule and linear regression analysis of natural log-transformed plasma concentrations vs. time data) was used. After intravenous dosing, Co was set equal to Co 083 Absolute bioavailability (F) was calculated from the ratio of average oral to IV (intravenous) dose-normalized plasma AUC (area under curve) values.

[8] = male, Balb, athymic Nu/Nu, mouse, in vivo, po
Text: as §5

[9] = in vivo; conditions: male, Balb, Nu/Nu, mouse, 10 mg/kg; for Vd / clearance: iv; for AUC(0-t) / half-life: po
Experimental: as §6

[10] = test system: ovarian cancer patients with confirmed BRCA-1 mutations; conditions: phase I, monotherapy, preliminary data; cited from earlier work

T1 sequence (P09874 whole entry): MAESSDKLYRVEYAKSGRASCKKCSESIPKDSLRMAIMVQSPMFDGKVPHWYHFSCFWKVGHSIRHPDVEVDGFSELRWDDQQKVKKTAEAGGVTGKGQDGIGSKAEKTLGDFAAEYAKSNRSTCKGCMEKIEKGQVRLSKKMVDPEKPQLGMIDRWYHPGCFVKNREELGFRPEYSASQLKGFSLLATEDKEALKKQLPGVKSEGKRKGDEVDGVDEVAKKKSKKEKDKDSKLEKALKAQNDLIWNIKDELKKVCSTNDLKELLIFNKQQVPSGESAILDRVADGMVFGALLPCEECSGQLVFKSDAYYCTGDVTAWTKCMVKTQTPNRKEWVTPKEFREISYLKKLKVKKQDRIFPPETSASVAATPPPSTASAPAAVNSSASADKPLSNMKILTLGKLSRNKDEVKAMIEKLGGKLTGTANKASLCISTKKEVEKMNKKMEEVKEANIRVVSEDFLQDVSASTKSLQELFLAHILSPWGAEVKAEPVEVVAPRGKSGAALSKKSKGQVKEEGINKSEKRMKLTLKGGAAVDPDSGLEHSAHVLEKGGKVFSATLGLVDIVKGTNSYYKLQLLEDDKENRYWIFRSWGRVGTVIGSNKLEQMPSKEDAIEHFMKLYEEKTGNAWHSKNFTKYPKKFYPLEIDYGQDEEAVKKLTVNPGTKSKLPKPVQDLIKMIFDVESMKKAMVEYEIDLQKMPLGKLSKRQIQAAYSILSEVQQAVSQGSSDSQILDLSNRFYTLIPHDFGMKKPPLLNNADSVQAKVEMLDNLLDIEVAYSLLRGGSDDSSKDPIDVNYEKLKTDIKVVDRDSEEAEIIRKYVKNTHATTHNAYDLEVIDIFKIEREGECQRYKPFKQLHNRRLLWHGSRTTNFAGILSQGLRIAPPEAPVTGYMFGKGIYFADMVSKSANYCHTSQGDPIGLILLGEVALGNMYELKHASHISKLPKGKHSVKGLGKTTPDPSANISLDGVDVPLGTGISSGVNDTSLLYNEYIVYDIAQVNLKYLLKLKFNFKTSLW

DC50 ([2]; probe compound P1) [nM]	DC50 [3] [µM]	DC50 [4] [µM]	IC50 [5] [nM]	Kd ([2]; probe compound P3) [nM]	SMILES	also measured
< 250	3.86	> 10	–	–	CC1c2cccc(C(N)=O)c2C(=O)N1C1CCN(Cc2cccs2)CC1 (stereo not drawn) [Compound 20, 1-Methyl-3-oxo-2-[1-(thiophen-2-ylmethyl)piperidin-4-yl]-2,3-dihydro-1H-isoindole-4-carboxamide]	Kd ([1]; probe compound P3): < 10 nM
1110	> 10	> 10	5300	–	CC1c2cccc(C(N)=O)c2C(=O)N1c1ccc(CN2CCCCC2)cc1 (stereo not drawn) [Compound 38, 1-Methyl-3-oxo-2-[4-(piperidin-1-ylmethyl)phenyl]-2,3-dihydro-1H-isoindole-4-carboxamide]	–
< 250	0.52	> 10	7000	30	CC1c2cccc(C(N)=O)c2C(=O)N1C1CCN(Cc2ccc3[nH]ccc3c2)CC1 (stereo not drawn) [Compound 7, 2-[1-(1H-indol-5-ylmethyl)piperidin-4-yl]-1-methyl-3-oxo-2,3-dihydro-1H-isoindole-4-carboxamide]	–
< 250	> 10	> 10	4900	40	CC1c2cccc(C(N)=O)c2C(=O)N1c1ccc(N2CCOCC2)cc1 (stereo not drawn) [Compound 35, 1-Methyl-2-[4-(morpholin-4-yl)phenyl]-3-oxo-2,3-dihydro-1H-isoindole-4-carboxamide]	–
350	> 10	> 10	3000	170	CC1c2cccc(C(N)=O)c2C(=O)N1C1CCN(Cc2ccccn2)CC1 (stereo not drawn) [Compound 9, 1-Methyl-3-oxo-2-[1-(pyridin-2-ylmethyl)piperidin-4-yl]-2,3-dihydro-1H-isoindole-4-carboxamide]	–
< 250	3.04	> 10	2500	20	CC1c2cccc(C(N)=O)c2C(=O)N1C1CCN(Cc2ccc[nH]2)CC1 (stereo not drawn) [Compound 19, 1-Methyl-3-oxo-2-[1-(1H-pyrrol-2-ylmethyl)piperidin-4-yl]-2,3-dihydro-1H-isoindole-4-carboxamide]	C-max (oral) [7]: 2.85 µM; Vd [9]: 3.9 L/kg; clearance [9]: 88 mL/min/kg; AUC(0-t) [9]: 4.28 µM·h; half-life [9]: 48 min
< 250	> 10	> 10	9000	80	CC1c2cccc(C(N)=O)c2C(=O)N1c1ccc(N2CCCCC2)cc1 (stereo not drawn) [Compound 36, 1-Methyl-3-oxo-2-[4-(piperidin-1-yl)phenyl]-2,3-dihydro-1H-isoindole-4-carboxamide]	–
< 250	> 10	> 10	–	40	CC1c2cccc(C(N)=O)c2C(=O)N1C1CCN(Cc2ccco2)CC1 (stereo not drawn) [Compound 15, 2-[1-(Furan-2-ylmethyl)piperidin-4-yl]-1-methyl-3-oxo-2,3-dihydro-1H-isoindole-4-carboxamide]	–

The remaining lines, values behind:

SMILES	DC50 ([2]; probe compound P1) [nM]	DC50 [3] [µM]	DC50 [4] [µM]	IC50 [5] [nM]	Kd ([2]; probe compound P3) [nM]	also measured
CC1c2cccc(C(N)=O)c2C(=O)N1C1CCN(C2CCCC2)CC1 (stereo not drawn) [Compound 13, 2-(1-Cyclopentylpiperidin-4-yl)-1-methyl-3-oxo-2,3-dihydro-1H-isoindole-4-carboxamide]	< 250	> 10	1.46	500	50	Max TGI (%) ([6]; 100 mg/kg, schedule 1-20 daily): 18%; C-max (oral) [7]: 3.64 µM; Toxicity (body weight reduction, mice affected out of 7 treated) ([8]; 100 mg/kg): 0/7; Vd [9]: 4.7 L/kg; clearance [9]: 26.7 mL/min/kg; AUC(0-t) [9]: 18.3 µM·h; half-life [9]: 174 min
CC1c2cccc(C(N)=O)c2C(=O)N1C1CCN(CC2CC=CCC2)CC1 (stereo not drawn) [Compound 22, 2-[1-(Cyclohex-3-en-1-ylmethyl)piperidin-4-yl]-1-methyl-3-oxo-2,3-dihydro-1H-isoindole-4-carboxamide]	< 250	> 10	> 10	–	40	–
C[C@H]1c2cccc(C(N)=O)c2C(=O)N1C1CCN(C2CCCCC2)CC1 [Compound 4, (1S)-2-(1-Cyclohexylpiperidin-4-yl)-1-methyl-3-oxo-2,3-dihydro-1H-isoindole-4-carboxamide]	–	> 10	> 10	150	–	Kd [1]: < 10 nM; DC50 [2]: < 250 nM; Max TGI (%) ([6]; 75 mg/kg, schedule 1-10 daily): 52%; C-max (oral) [7]: 1.37 µM; Toxicity (body weight reduction, mice affected out of 7 treated) ([8]; 75 mg/kg): 0/7; Vd [9]: 6.8 L/kg; clearance [9]: 53.4 mL/min/kg; AUC(0-t) [9]: 4.93 µM·h; half-life [9]: 157 min
O=C(c1cc(Cc2n[nH]c(=O)c3ccccc23)ccc1F)N1CCN(C(=O)C2CC2)CC1 [AZD2281]	–	–	–	–	–	partial responses [10]: 4 out of 10
CC1c2cccc(C(N)=O)c2C(=O)N1C1CCN(CC2CCCCC2)CC1 (stereo not drawn) [Compound 21, 2-[1-(Cyclohexylmethyl)piperidin-4-yl]-1-methyl-3-oxo-2,3-dihydro-1H-isoindole-4-carboxamide]	–	> 10	> 10	1200	–	Max TGI (%) ([6]; 100 mg/kg, schedule 1-20 daily): 23%; C-max (oral) [7]: 1.2 µM; Toxicity (body weight reduction, mice affected out of 7 treated) ([8]; 100 mg/kg): 0/7; Vd [9]: 4.9 L/kg; clearance [9]: 23 mL/min/kg; AUC(0-t) [9]: 7.39 µM·h; half-life [9]: 396 min
C[C@@H]1c2cccc(C(N)=O)c2C(=O)N1C1CCN(C2CCCCC2)CC1 [Compound 5, (1R)-2-(1-Cyclohexylpiperidin-4-yl)-1-methyl-3-oxo-2,3-dihydro-1H-isoindole-4-carboxamide]	–	> 10	> 10	6300	–	DC50 [2]: 2110 nM; Kd [2]: 780 nM
CC1c2cccc(C(N)=O)c2C(=O)N1C1CCN(Cc2ncc[nH]2)CC1 (stereo not drawn) [Compound 26, 2-[1-(1H-Imidazol-2-ylmethyl)piperidin-4-yl]-1-methyl-3-oxo-2,3-dihydro-1H-isoindole-4-carboxamide]	< 250	2.83	6.88	–	70	–
CC1c2cc(F)cc(C(N)=O)c2C(=O)N1C1CCN(C2CCC(F)(F)CC2)CC1 (stereo not drawn) [Compound 126, 2-[1-(4,4-Difluorocyclohexyl)piperidin-4-yl]-6-fluoro-1-methyl-3-oxo-2,3-dihydro-1H-isoindole-4-carboxamide]	< 250	> 10	> 10	270	–	–
CC1c2cccc(C(N)=O)c2C(=O)N1C1CCN(C2CCC2)CC1 (stereo not drawn) [Compound 18, 2-(1-Cyclobutylpiperidin-4-yl)-1-methyl-3-oxo-2,3-dihydro-1H-isoindole-4-carboxamide]	< 250	> 10	1.82	2700	–	Kd ([1]; probe compound P3): < 10 nM; C-max (oral) [7]: 3.9 µM; Vd [9]: 3.84 L/kg; clearance [9]: 47 mL/min/kg; AUC(0-t) [9]: 7.28 µM·h; half-life [9]: 108 min
CC1(C)c2cc(F)cc(C(N)=O)c2C(=O)N1C1CCN(C2CCCCC2)CC1 [Compound 128, 2-(1-Cyclohexylpiperidin-4-yl)-6-fluoro-1,1-dimethyl-3-oxo-2,3-dihydro-1H-isoindole-4-carboxamide]	5660	> 10	> 10	4000	870	–
CC1c2cccc(C(N)=O)c2C(=O)N1C1CCN(C2CCCCC2)CC1 (racemic) [Compound 3, 2-(1-Cyclohexylpiperidin-4-yl)-1-methyl-3-oxo-2,3-dihydro-1H-isoindole-4-carboxamide]	–	> 10	> 10	280	–	Kd [1]: < 10 nM; DC50 [2]: < 250 nM; Max TGI (%) ([6]; 100 mg/kg, schedule 1-10 daily): 51%; C-max (oral) [7]: 2.53 µM; Toxicity (body weight reduction, mice affected out of 7 treated) ([8]; 100 mg/kg): 0/7; Vd [9]: 3.61 L/kg; clearance [9]: 32.6 mL/min/kg; AUC(0-t) [9]: 13.5 µM·h; half-life [9]: 182 min
CC1c2cc(F)cc(C(N)=O)c2C(=O)N1C1CCN(C2CCCCC2)CC1 (stereo not drawn) [Compound 127, 2-(1-Cyclohexylpiperidin-4-yl)-6-fluoro-1-methyl-3-oxo-2,3-dihydro-1H-isoindole-4-carboxamide]	410	> 10	> 10	640	60	–
CC1c2cccc(C(N)=O)c2C(=O)N1C1CCN(C2CCC(F)(F)CC2)CC1 (stereo not drawn) [Compound 6, 2-[1-(4,4-Difluorocyclohexyl)piperidin-4-yl]-1-methyl-3-oxo-2,3-dihydro-1H-isoindole-4-carboxamide]	< 250	> 10	> 10	1300	30	–
CC1c2cccc(C(N)=O)c2C(=O)N1C1CCN(Cc2cn(C(C)C)c3ccccc23)CC1 (stereo not drawn) [Compound 8, 1-Methyl-3-oxo-2-(1-{[1-(propan-2-yl)-1H-indol-3-yl]methyl}piperidin-4-yl)-2,3-dihydro-1H-isoindole-4-carboxamide]	440	3.1	> 10	–	250	–
